The NIST ThermoML archive (doi:10.1021/acs.jced.8b01146)
Where “and” joins values, the source holds several entries; their conditions need not be identical. Equal values may be shown once. ± gives the expanded uncertainty stated by the source.

Key:
[1] = excess molar enthalpy (molar enthalpy of mixing); xn = mol fraction of the nth substance listed; conditions: 100 kPa, Liquid, Calvet calorimetry
[2] = xn = mol fraction of the nth substance listed; conditions: 100 kPa, Liquid, Vibrating tube method

Molecule `CC1CCCC(=O)O1` (configuration not stated) [2H-pyran-2-one, tetrahydro-6-methyl-] + O has an excess molar enthalpy ([1]; 288.15 K, x1 = 0.001653) of -0.0143 ± 0.0009 kJ/mol, an excess molar enthalpy ([1]; 288.15 K, x1 = 0.002149) of -0.0183 ± 0.00093 kJ/mol and an excess molar enthalpy ([1]; 288.15 K, x1 = 0.002478) of -0.0211 ± 0.00098 kJ/mol. For the same molecule, the excess molar enthalpy ([1]; 288.15 K, x1 = 0.002643) was -0.0224 ± 0.001 kJ/mol, the excess molar enthalpy ([1]; 288.15 K, x1 = 0.003302) was -0.0276 kJ/mol and -0.0279 kJ/mol and the excess molar enthalpy ([1]; 288.15 K, x1 = 0.004124) was -0.0342 ± 0.0012 kJ/mol. The excess molar enthalpy ([1]; 288.15 K, x1 = 0.004945) was -0.0407 ± 0.0013 kJ/mol, the excess molar enthalpy ([1]; 298.15 K, x1 = 0.001158) was -0.0081 ± 0.00084 kJ/mol and the excess molar enthalpy ([1]; 298.15 K, x1 = 0.001653) was -0.0114 ± 0.00087 kJ/mol. For the same molecule, the excess molar enthalpy ([1]; 298.15 K, x1 = 0.002147) was -0.0147 ± 0.0009 kJ/mol, the excess molar enthalpy ([1]; 298.15 K, x1 = 0.002641) was -0.018 ± 0.00093 kJ/mol and the excess molar enthalpy ([1]; 298.15 K, x1 = 0.0033) was -0.0223 ± 0.001 kJ/mol. The excess molar enthalpy ([1]; 298.15 K, x1 = 0.003306) was -0.0226 ± 0.0015 kJ/mol, the excess molar enthalpy ([1]; 298.15 K, x1 = 0.003307) was -0.0224 ± 0.001 kJ/mol and the excess molar enthalpy ([1]; 298.15 K, x1 = 0.004125) was -0.0277 ± 0.0013 kJ/mol. The excess molar enthalpy ([1]; 298.15 K, x1 = 0.004129) was -0.028 ± 0.0036 kJ/mol, the excess molar enthalpy ([1]; 298.15 K, x1 = 0.004131) was -0.0278 ± 0.0014 kJ/mol and the excess molar enthalpy ([1]; 298.15 K, x1 = 0.004946) was -0.0331 ± 0.0029 kJ/mol. It also gave an excess molar enthalpy ([1]; 298.15 K, x1 = 0.004951) of -0.0329 ± 0.0018 kJ/mol, an excess molar enthalpy ([1]; 298.15 K, x1 = 0.004953) of -0.0327 ± 0.0029 kJ/mol and an excess molar enthalpy ([1]; 308.15 K, x1 = 0.001656) of -0.00905 ± 0.00085 kJ/mol. The excess molar enthalpy ([1]; 308.15 K, x1 = 0.002482) was -0.0132 ± 0.00089 kJ/mol, the excess molar enthalpy ([1]; 308.15 K, x1 = 0.003307) was -0.0171 kJ/mol and -0.0174 kJ/mol and the excess molar enthalpy ([1]; 308.15 K, x1 = 0.00413) was -0.0214 ± 0.00098 kJ/mol. For the same molecule, the excess molar enthalpy ([1]; 308.15 K, x1 = 0.004131) was -0.0212 ± 0.00098 kJ/mol, the excess molar enthalpy ([1]; 308.15 K, x1 = 0.004953) was -0.0252 ± 0.001 kJ/mol and the excess molar enthalpy ([1]; 308.15 K, x1 = 0.004954) was -0.0252 ± 0.001 kJ/mol. For the same molecule, the excess molar enthalpy ([1]; 318.15 K, x1 = 0.001655) was -0.00615 kJ/mol and -0.0062 kJ/mol, the excess molar enthalpy ([1]; 318.15 K, x1 = 0.00248) was -0.0092 ± 0.00085 kJ/mol and the excess molar enthalpy ([1]; 318.15 K, x1 = 0.002481) was -0.00925 ± 0.00085 kJ/mol. The excess molar enthalpy ([1]; 318.15 K, x1 = 0.003305) was -0.0121 ± 0.00088 kJ/mol, the excess molar enthalpy ([1]; 318.15 K, x1 = 0.003306) was -0.0123 ± 0.00088 kJ/mol and the excess molar enthalpy ([1]; 318.15 K, x1 = 0.004127) was -0.0151 ± 0.0009 kJ/mol. For the same molecule, the excess molar enthalpy ([1]; 318.15 K, x1 = 0.004129) was -0.0152 ± 0.0009 kJ/mol, the excess molar enthalpy ([1]; 318.15 K, x1 = 0.004948) was -0.018 ± 0.0014 kJ/mol and the excess molar enthalpy ([1]; 318.15 K, x1 = 0.004952) was -0.0181 ± 0.0014 kJ/mol. The mass density ([2]; 288.15 K, x1 = 0.001653) was 999.935 ± 0.037 kg/m3, the mass density ([2]; 288.15 K, x1 = 0.002149) was 1000.17 ± 0.038 kg/m3 and the mass density ([2]; 288.15 K, x1 = 0.002478) was 1000.35 ± 0.039 kg/m3. For the same molecule, the mass density ([2]; 288.15 K, x1 = 0.002643) was 1000.42 ± 0.039 kg/m3, the mass density ([2]; 288.15 K, x1 = 0.003302) was 1000.74 ± 0.04 kg/m3 and 1000.76 ± 0.04 kg/m3 and the mass density ([2]; 288.15 K, x1 = 0.004124) was 1001.15 ± 0.042 kg/m3. It also gave a mass density ([2]; 288.15 K, x1 = 0.004945) of 1001.54 ± 0.044 kg/m3, a mass density ([2]; 298.15 K, x1 = 0.001158) of 997.57 ± 0.037 kg/m3 and a mass density ([2]; 298.15 K, x1 = 0.001653) of 997.788 ± 0.038 kg/m3. The mass density ([2]; 298.15 K, x1 = 0.002147) was 998.009 ± 0.038 kg/m3, the mass density ([2]; 298.15 K, x1 = 0.002641) was 998.225 ± 0.04 kg/m3 and the mass density ([2]; 298.15 K, x1 = 0.0033) was 998.509 ± 0.59 kg/m3. The mass density ([2]; 298.15 K, x1 = 0.003306) was 998.52 ± 1.1 kg/m3, the mass density ([2]; 298.15 K, x1 = 0.003307) was 998.507 ± 0.59 kg/m3 and the mass density ([2]; 298.15 K, x1 = 0.004125) was 998.876 ± 0.89 kg/m3. The mass density ([2]; 298.15 K, x1 = 0.004129) was 998.875 ± 0.038 kg/m3, the mass density ([2]; 298.15 K, x1 = 0.004131) was 998.861 ± 0.4 kg/m3 and the mass density ([2]; 298.15 K, x1 = 0.004946) was 999.23 ± 0.29 kg/m3. It also gave a mass density ([2]; 298.15 K, x1 = 0.004951) of 999.209 ± 1.1 kg/m3, a mass density ([2]; 298.15 K, x1 = 0.004953) of 999.206 ± 0.29 kg/m3 and a mass density ([2]; 308.15 K, x1 = 0.001656) of 994.712 ± 0.04 kg/m3. For the same molecule, the mass density ([2]; 308.15 K, x1 = 0.002482) was 995.04 ± 0.039 kg/m3, the mass density ([2]; 308.15 K, x1 = 0.003307) was 995.379 ± 0.04 kg/m3 and 995.363 ± 0.04 kg/m3 and the mass density ([2]; 308.15 K, x1 = 0.00413) was 995.684 ± 0.041 kg/m3. It also gave a mass density ([2]; 308.15 K, x1 = 0.004131) of 995.714 ± 0.041 kg/m3, a mass density ([2]; 308.15 K, x1 = 0.004953) of 995.986 ± 0.038 kg/m3 and a mass density ([2]; 308.15 K, x1 = 0.004954) of 996.02 ± 0.038 kg/m3. The mass density ([2]; 318.15 K, x1 = 0.001655) was 990.83 ± 0.04 kg/m3 and 990.824 ± 0.04 kg/m3, the mass density ([2]; 318.15 K, x1 = 0.00248) was 991.131 ± 0.041 kg/m3 and the mass density ([2]; 318.15 K, x1 = 0.002481) was 991.124 ± 0.041 kg/m3. It also gave a mass density ([2]; 318.15 K, x1 = 0.003305) of 991.433 ± 0.041 kg/m3, a mass density ([2]; 318.15 K, x1 = 0.003306) of 991.423 ± 0.041 kg/m3 and a mass density ([2]; 318.15 K, x1 = 0.004127) of 991.726 ± 0.042 kg/m3. The mass density ([2]; 318.15 K, x1 = 0.004129) was 991.723 ± 0.042 kg/m3, the mass density ([2]; 318.15 K, x1 = 0.004948) was 992.021 ± 0.054 kg/m3 and the mass density ([2]; 318.15 K, x1 = 0.004952) was 992.018 ± 0.054 kg/m3.
